Several values for one entry are separate records, joined by “and”; a condition that tells them apart may be missing. Identical values can stand only once. Like-named read-outs stand apart in the source and are kept apart here.
Key:
Ba/F3-EGFR-WT cells = Ba/F3-EGFR-WT cells (Homo sapiens, UniProt P00533); experiment: Ba/F3 cell survival assay (Cell Titer-Glo), WT EGFR; assay type: cell-based; conditions: without IL-3, with 10 ng/mL EGF, 48 h; read-out: BA/F3 (wild type) IC50
In short: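 Ba/F3 cells stably expressing WT EGFR or EGFR-insSVD from retroviral transduction were grown without IL-3 on 10 ng/mL EGF. Cells were plated at 4000 cells/well, treated with compound for 48 h at 37° C, and viability was read by CellTiter-Glo luminescence.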

[1] = target: Ba/F3-EGFR-E746_A750del C797S cells (Homo sapiens, UniProt P00533, DEL746-750/C797S, cells depend on it); experiment: Ba/F3 cell survival assay, EGFR E746_A750del C797S; assay type: cell-based; conditions: without IL-3, without EGF, 48 h; read-out: BA/F3 (EGFR E746_A750del C797S) IC50
Protocol: (§1) 293T cells from ATCC were transfected with pBABEpuro expression constructs for mutant EGFR (V769_D770insASV, D770_N771insNPG, N771_P772insH, H773_V774insNPH, E746_A750del, L858R, D770_N771insSVD C797S, E746_A750del C797S, L858R C797S, L861Q) or mutant ERBB2 (A775_G776insYVMA) and pCL-Eco packaging vector using Fugene-6 transfection reagent from Promega. Plates were incubated at 37° C. for 48 h. Retrovirus was harvested by filtering the media supernatant through a 0.45 μm filter.
(§2) Ba/F3 cells purchased from DSMZ were grown in RPMI+10% FBS+10 ng/mL IL-3 and infected with filtered retroviral supernatant at a 1:2 dilution. Polybrene was added to a concentration of 8 μg/mL, plates were spun for 90 min, and incubated overnight at 37° C. 2 μg/mL puromycin was added to the infected cells 24 h after infection and cells were continually grown in the presence of puromycin and 10 ng/mL IL-3. Following stably expressing Ba/F3 cell lines were generated: Ba/F3-EGFR-V769_D770insASV, Ba/F3-EGFR-D770_N771insNPG, Ba/F3-EGFR-N771_P772insH, Ba/F3-EGFR-H773_V774insNPH, Ba/F3-EGFR-E746_A750del, Ba/F3-EGFR-L858R, Ba/F3-EGFR-D770_N771 insSVD C797S, Ba/F3-EGFR-E746_A750del C797S, Ba/F3-EGFR-L858R C797S, Ba/F3-EGFR L861Q and Ba/F3-ERBB2-A775_G776insYVMA (Ba/F3-vector-control).
(§3) For cell survival assays, Ba/F3 cells were grown to a density of 1-2 million cells per mL, spun down and resuspended in media without IL-3, and replated at a concentration 200,000-500,000 cells per mL. The cells ectopically expressing WT EGFR plated with 10 ng/mL Millipore Culture grade EGF and Ba/F3 cells containing mutant EGFR or Mutant ERBB2 were cultivated without EGF. The cells ectopically expressing pBABEpuro empty vector were plated with 10 ng/mL IL-3.
(§4) 2 days later, cells were plated in 50 μL in a 384 well plate at a concentration of 4000 cells per well for cells assayed in the absence of IL-3 and 2000 cells per well for cells assayed in the presence of IL-3. 100 nL of compound was added to each well using a 100 nL pin head, and plates were incubated at 37° C. for 48 h.
(§5) Cell viability was measured by adding 20 μL of Cell Titer-Glo Luminescent Cell Viability Reagent diluted 1:3 in PBS. Plates were sealed with Perkin Elmer Top-Seal, inverted several times to mix, and immediately centrifuged at 1000 rpm for 2 min. Plates were incubated in low light conditions for 8-10 min and luminescence was measured.

Bub1 = target: T1, Bub1 (Homo sapiens, UniProt O43683); experiment: Bub1 TR-FRET high ATP kinase assay; assay type: biochemical; conditions: 2 mM ATP
T1 construct: catalytic domain of human Bub1 (amino acids 704-1085); His6 (N); made in house; host or cells: Hi5 insect cells
In short: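 Recombinant His6-tagged human Bub1 catalytic domain (aa 704-1085), from Hi5 insect cells, phosphorylating a biotinylated peptide substrate at high ATP concentration. TR-FRET read-out.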

Ba/F3-EGFR-L858R cells = Ba/F3-EGFR-L858R cells (Homo sapiens, UniProt P00533, L858R, cells depend on it); experiment: Ba/F3 cell survival assay, EGFR L858R; assay type: cell-based; conditions: without IL-3, without EGF, 48 h; read-out: BA/F3 (EGFR L858R) IC50
Protocol: as §1, §2, §3, §4, §5

[2] = target: Ba/F3-EGFR-D770_N771 insSVD C797S cells (Homo sapiens, UniProt P00533, DUP768-770/C797S, cells depend on it); experiment: Ba/F3 cell survival assay, EGFR D770_N771insSVD C797S; assay type: cell-based; conditions: without IL-3, without EGF, 48 h; read-out: BA/F3 (EGFR 0770_N771 insSVD C797S) IC50
Protocol: as §1, §2, §3, §4, §5

[3] = target: T2, EGFR with insertion of SVD between D770 and N771 (EGFR ins SVD) (Homo sapiens, UniProt P00533, DUP768-770); experiment: Exon20-Mutant-EGFR(D770_N771insSVD) kinase assay (TR-FRET); assay type: biochemical; conditions: 2 mM ATP, several values per example where printed
T2 construct: made in house; host or cells: Sf9 insect cells (baculovirus)

[4] = Bub1 high ATP (2 mM) IC50 [mol/l]

Ba/F3-EGFR-D770_N771 insSVD C797S cells, sequence (P00533 with tags, fused parts or gaps DUP768-770/C797S): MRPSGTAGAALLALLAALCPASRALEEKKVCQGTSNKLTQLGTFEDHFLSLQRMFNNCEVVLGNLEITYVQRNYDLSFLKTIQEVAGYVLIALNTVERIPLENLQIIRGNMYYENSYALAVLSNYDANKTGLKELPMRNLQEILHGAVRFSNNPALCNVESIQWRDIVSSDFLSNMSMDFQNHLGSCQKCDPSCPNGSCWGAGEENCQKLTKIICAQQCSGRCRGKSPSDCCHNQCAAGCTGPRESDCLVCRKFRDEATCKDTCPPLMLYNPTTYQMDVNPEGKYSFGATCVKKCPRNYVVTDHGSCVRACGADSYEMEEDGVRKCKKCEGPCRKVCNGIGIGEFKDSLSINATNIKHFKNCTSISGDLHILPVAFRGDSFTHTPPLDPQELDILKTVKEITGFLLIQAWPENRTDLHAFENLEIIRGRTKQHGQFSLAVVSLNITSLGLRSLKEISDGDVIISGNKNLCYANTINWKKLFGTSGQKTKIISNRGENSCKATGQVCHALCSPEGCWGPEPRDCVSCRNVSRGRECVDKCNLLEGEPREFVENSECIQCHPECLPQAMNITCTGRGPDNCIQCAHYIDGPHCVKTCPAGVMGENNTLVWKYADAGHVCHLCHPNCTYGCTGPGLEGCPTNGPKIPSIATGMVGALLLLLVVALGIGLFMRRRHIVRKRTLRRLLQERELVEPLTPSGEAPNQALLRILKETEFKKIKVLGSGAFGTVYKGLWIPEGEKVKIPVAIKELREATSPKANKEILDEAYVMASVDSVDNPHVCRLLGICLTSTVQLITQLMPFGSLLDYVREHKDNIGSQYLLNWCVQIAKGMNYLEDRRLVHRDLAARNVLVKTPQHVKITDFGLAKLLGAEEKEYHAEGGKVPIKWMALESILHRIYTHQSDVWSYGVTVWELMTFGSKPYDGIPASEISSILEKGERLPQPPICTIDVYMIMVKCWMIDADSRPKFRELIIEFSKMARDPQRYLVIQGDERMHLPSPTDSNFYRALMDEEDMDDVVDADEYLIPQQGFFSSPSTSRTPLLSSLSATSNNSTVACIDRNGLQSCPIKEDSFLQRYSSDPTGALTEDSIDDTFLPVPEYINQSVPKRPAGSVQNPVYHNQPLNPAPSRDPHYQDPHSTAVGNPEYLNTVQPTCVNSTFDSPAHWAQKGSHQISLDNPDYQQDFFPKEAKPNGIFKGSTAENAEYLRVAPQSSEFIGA
Ba/F3-EGFR-E746_A750del C797S cells, sequence (P00533 with tags, fused parts or gaps DEL746-750/C797S): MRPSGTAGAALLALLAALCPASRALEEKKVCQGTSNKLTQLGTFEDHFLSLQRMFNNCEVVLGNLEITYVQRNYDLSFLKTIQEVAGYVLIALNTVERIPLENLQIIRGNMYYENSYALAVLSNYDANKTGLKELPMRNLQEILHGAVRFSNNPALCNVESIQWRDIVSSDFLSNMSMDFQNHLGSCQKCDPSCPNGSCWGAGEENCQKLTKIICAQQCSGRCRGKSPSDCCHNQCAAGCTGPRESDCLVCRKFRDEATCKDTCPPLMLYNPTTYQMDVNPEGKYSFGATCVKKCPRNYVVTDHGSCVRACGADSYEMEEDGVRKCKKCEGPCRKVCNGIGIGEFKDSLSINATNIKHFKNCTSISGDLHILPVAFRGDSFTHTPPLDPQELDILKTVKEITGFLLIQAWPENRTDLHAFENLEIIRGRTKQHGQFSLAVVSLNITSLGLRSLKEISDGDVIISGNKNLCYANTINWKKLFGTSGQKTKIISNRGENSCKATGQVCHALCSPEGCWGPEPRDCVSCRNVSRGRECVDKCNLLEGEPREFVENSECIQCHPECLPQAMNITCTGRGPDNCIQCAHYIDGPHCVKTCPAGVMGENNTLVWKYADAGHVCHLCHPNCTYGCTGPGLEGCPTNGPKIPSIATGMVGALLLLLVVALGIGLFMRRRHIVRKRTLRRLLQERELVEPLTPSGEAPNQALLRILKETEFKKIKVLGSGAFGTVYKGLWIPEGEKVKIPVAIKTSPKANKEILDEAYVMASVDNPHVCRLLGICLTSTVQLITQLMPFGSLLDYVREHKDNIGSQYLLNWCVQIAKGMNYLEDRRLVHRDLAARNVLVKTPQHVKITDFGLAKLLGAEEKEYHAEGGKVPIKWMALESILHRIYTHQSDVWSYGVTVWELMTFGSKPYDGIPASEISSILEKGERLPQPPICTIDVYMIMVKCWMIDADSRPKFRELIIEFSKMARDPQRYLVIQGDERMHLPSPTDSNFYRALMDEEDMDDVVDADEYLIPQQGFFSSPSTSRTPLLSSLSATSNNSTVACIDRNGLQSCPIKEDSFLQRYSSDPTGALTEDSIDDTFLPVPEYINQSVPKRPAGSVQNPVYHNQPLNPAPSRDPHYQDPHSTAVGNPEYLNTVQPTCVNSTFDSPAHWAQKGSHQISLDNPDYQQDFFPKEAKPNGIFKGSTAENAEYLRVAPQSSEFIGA
Ba/F3-EGFR-WT cells, sequence (P00533 whole entry, stated change not applied): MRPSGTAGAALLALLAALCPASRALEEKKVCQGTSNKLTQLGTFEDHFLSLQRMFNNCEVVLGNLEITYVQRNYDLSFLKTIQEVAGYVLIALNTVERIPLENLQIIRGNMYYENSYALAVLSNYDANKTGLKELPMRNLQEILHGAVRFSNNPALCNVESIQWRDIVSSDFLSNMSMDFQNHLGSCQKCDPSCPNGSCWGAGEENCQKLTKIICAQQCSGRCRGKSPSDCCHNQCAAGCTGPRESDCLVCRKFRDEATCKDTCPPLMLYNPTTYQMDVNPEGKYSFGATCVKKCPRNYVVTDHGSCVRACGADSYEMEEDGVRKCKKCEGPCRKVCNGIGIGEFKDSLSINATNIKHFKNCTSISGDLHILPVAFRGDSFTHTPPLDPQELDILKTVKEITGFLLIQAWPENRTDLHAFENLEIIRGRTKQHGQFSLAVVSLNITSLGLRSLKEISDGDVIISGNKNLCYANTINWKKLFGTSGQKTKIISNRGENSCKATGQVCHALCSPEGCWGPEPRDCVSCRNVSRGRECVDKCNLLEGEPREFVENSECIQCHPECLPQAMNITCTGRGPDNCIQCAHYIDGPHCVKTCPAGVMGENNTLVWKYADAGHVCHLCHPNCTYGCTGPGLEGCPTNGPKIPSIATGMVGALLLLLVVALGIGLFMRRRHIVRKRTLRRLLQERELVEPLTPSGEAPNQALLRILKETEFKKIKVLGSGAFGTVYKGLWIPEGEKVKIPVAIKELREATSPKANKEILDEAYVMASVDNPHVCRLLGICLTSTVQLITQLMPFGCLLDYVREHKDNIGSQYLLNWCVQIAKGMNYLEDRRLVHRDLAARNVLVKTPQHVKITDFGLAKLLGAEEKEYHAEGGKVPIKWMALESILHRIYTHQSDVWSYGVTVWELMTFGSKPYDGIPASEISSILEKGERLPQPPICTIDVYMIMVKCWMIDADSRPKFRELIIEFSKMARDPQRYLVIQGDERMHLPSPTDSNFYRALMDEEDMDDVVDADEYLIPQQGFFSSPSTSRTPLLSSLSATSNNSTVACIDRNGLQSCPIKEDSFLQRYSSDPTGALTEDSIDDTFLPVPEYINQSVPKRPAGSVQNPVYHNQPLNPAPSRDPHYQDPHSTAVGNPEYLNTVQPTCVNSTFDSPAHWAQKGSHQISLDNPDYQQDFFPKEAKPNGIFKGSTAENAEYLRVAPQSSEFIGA
Ba/F3-EGFR-L858R cells, sequence (P00533 whole entry L858R): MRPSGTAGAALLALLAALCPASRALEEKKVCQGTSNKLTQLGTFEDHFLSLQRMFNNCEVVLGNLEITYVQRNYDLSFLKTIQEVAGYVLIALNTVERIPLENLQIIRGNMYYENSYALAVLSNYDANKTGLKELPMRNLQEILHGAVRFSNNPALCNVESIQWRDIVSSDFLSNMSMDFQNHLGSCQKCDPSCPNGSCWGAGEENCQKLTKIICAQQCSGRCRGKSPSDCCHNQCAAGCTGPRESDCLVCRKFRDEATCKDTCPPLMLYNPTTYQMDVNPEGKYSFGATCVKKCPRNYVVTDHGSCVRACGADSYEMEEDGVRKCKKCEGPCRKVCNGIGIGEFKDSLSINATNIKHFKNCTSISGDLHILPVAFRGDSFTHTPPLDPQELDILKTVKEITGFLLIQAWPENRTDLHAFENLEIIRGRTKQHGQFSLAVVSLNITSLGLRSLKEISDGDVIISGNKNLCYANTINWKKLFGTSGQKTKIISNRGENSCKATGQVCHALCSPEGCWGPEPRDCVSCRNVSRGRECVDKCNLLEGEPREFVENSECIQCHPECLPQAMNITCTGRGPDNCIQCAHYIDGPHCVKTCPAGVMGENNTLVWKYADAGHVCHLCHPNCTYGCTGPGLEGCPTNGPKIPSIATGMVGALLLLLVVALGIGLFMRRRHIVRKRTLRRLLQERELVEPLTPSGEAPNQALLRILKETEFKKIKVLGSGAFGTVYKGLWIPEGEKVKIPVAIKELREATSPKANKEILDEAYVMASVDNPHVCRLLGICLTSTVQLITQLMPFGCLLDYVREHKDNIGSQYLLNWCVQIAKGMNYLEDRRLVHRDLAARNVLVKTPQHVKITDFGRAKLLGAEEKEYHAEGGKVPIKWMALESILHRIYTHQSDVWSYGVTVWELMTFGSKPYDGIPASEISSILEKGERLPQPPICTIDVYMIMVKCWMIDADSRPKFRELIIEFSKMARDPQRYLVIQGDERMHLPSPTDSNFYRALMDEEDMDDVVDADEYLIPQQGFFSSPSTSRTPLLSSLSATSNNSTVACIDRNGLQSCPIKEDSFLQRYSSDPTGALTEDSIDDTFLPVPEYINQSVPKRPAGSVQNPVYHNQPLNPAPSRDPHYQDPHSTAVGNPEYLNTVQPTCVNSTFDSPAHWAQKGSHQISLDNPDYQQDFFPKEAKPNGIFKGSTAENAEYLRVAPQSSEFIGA

SMILES | GI50 (Ba/F3-EGFR-WT cells) | GI50 [1] | IC50 (Bub1; [4]) | GI50 (Ba/F3-EGFR-L858R cells) | GI50 [2] | mutEGFR (D770_N771insSVD) kinase assay IC50 [3] | IC50 (Bub1; read-out: Bub1 high ATP (2 mM) IC50 [mol/l])
COc1c(Cl)cccc1Nc1c(-c2ccncc2OC[C@@H]2COCCO2)[nH]c2c1C(=O)NCC2 (single isomer, unassigned) [Example 2] | 292 nM | 0.22 nM | 6040 nM | 0.525 nM | 8.22 nM |  | 
COc1c(F)cccc1Nc1c(-c2ccncc2OCC2COCCO2)[nH]c2c1C(=O)NCC2 (single isomer, unassigned) [Example 5, 2-{3-[(1,4-dioxan-2-yl)methoxy]pyridin-4-yl}-3-(3-fluoro-2-methoxyanilino)-1,5,6,7-tetrahydro-4H-pyrrolo[3,2-c]pyridin-4-one] | 262 nM | 0.668 nM | 12900 nM | 2.03 nM | 37 nM | <0.0725 nM and 0.0851 nM and 0.112 nM and 0.114 nM and 0.12 nM and 0.124 nM and 0.136 nM | 
O=C1NCCc2[nH]c(-c3ccncc3OCC3COCCO3)c(Nc3cccc(Cl)c3Cl)c21 (single isomer, unassigned) [Example 8, 3-(2,3-dichloroanilino)-2-{3-[(1,4-dioxan-2-yl)methoxy]pyridin-4-yl}-1,5,6,7-tetrahydro-4H-pyrrolo[3,2-c]pyridin-4-one] | 121 nM | 0.247 nM | 7880 nM | 0.701 nM | 14.6 nM | 0.0799 nM | 
COc1c(F)cccc1Nc1c(-c2ccncc2OCC2CN(C)CCO2)[nH]c2c1C(=O)NCC2 (single isomer, unassigned) [Example 14, 3-(3-fluoro-2-methoxyanilino)-2-{3-[(4-methylmorpholin-2-yl)methoxy]pyridin-4-yl}-1,5,6,7-tetrahydro-4H-pyrrolo[3,2-c]pyridin-4-one] | 387 nM | 0.379 nM |  | 1.22 nM | 24.9 nM | 0.13 nM | > 20000 nM
COc1c(Cl)cccc1Nc1c(-c2ccncc2OCC2COC(C)(C)CO2)[nH]c2c1C(=O)NCC2 (single isomer, unassigned) [Example 32, 3-(3-chloro-2-methoxyanilino)-2-{3-[(5,5-dimethyl-1,4-dioxan-2-yl)methoxy]pyridin-4-yl}-1,5,6,7-tetrahydro-4H-pyrrolo[3,2-c]pyridin-4-one] |  | 0.511 nM |  | 1.06 nM | 15.8 nM | 0.127 nM | 
Cc1c(Cl)cccc1Nc1c(-c2ccncc2OCC2COC(C)(C)CO2)[nH]c2c1C(=O)NCC2 (single isomer, unassigned) [Example 46, 3-(3-chloro-2-methyl-anilino)-2-[3-[(5,5-dimethyl-1,4-dioxan-2-yl)methoxy]-4-pyridyl]-1,5,6,7-tetrahydropyrrolo[3,2-c]pyridin-4-one] | 376 nM |  | 13000 nM | 0.957 nM |  | 0.433 nM | 
Cc1c(F)cccc1Nc1c(-c2ccncc2OCC2COCCO2)[nH]c2c1C(=O)NCC2 (single isomer, unassigned) [Example 48, 2-[3-(1,4-dioxan-2-ylmethoxy)-4-pyridyl]-3-(3-fluoro-2-methyl-anilino)-1,5,6,7-tetrahydropyrrolo[3,2-c]pyridin-4-one] | 379 nM | 0.4 nM and 0.776 nM | 12200 nM | 2.36 nM |  | 0.249 nM | 
Cc1c(Cl)cccc1Nc1c(-c2ccncc2OC[C@H]2COCCO2)[nH]c2c1C(=O)NCC2 (single isomer, unassigned) [Example 50] | 361 nM | 0.348 nM | 3540 nM | 1.07 nM | 26.7 nM | 0.17 nM | 
COc1c(F)cccc1Nc1c(-c2ccncc2OC[C@@H]2COCCN2C)[nH]c2c1C(=O)NCC2 [Example 20, 3-(3-fluoro-2-methoxyanilino)-2-(3-{[(3S)-4-methylmorpholin-3-yl]methoxy}pyridin-4-yl)-1,5,6,7-tetrahydro-4H-pyrrolo[3,2-c]pyridin-4-one] | 313 nM | 0.349 nM | 9530 nM |  | 12.2 nM | 0.0872 nM | 
COc1c(Cl)cccc1Nc1c(-c2ccncc2OC[C@@H]2COCCN2C)[nH]c2c1C(=O)NCC2 [Example 21, 3-(3-chloro-2-methoxyanilino)-2-(3-{[(3S)-4-methylmorpholin-3-yl]methoxy}pyridin-4-yl)-1,5,6,7-tetrahydro-4H-pyrrolo[3,2-c]pyridin-4-one] | 341 nM | 0.259 nM | 3790 nM | 0.644 nM | 7.84 nM | 0.126 nM | 
Cc1c(Cl)cccc1Nc1c(-c2ccncc2OC[C@@H]2CN(C)CCO2)[nH]c2c1C(=O)NCC2 [Example 42, 3-(3-chloro-2-methylanilino)-2-(3-{[(2S)-4-methylmorpholin-2-yl]methoxy}pyridin-4-yl)-1,5,6,7-tetrahydro-4H-pyrrolo[3,2-c]pyridin-4-one] | 596 nM | 0.494 nM | > 20000 nM | 1.51 nM | 19.3 nM | 0.155 nM | 
CCc1c(Cl)cccc1Nc1c(-c2ccncc2OC[C@@H]2CN(C)CCO2)[nH]c2c1C(=O)NCC2 [Example 56, 3-(3-chloro-2-ethylanilino)-2-(3-{[(2S)-4-methylmorpholin-2-yl]methoxy}pyridin-4-yl)-1,5,6,7-tetrahydro-4H-pyrrolo[3,2-c]pyridin-4-one] | 435 nM | 0.423 nM | 16500 nM | 1.34 nM | 14 nM | 0.258 nM | 

Source: US12679836B2, “4H-pyrrolo[3,2-c]pyridin-4-one compounds” (Bayer Aktiengesellschaft, priority 2019, dated 2026)
